Earlier results as cited in patent US20250375533A1, “Sublingual Formulation of Anticancer Compound for Use in the Treatment of Autoimmune Neurodegenerative Diseases” (Vektor Pharma TF GmbH, priority 2022, published 2025).
Read-outs that look alike come from different tables or passages of the source.

Legend:
[1] = in vivo
[2] = 37° C.
[3] = pH 1.4 solution; for active substance maintained: with cyclodextrins
[4] = oral solution without HPβCD
[5] = administered rectally
[6] = saliva
Clostridium perfringens = Clostridium perfringens culture
Escherichia coli = Escherichia coli culture
[7] = molecular target: BCRP (ABCG2) transporter proteins (Homo sapiens, UniProt Q9UNQ0)
Sequence of BCRP (ABCG2) transporter proteins (Q9UNQ0 whole entry): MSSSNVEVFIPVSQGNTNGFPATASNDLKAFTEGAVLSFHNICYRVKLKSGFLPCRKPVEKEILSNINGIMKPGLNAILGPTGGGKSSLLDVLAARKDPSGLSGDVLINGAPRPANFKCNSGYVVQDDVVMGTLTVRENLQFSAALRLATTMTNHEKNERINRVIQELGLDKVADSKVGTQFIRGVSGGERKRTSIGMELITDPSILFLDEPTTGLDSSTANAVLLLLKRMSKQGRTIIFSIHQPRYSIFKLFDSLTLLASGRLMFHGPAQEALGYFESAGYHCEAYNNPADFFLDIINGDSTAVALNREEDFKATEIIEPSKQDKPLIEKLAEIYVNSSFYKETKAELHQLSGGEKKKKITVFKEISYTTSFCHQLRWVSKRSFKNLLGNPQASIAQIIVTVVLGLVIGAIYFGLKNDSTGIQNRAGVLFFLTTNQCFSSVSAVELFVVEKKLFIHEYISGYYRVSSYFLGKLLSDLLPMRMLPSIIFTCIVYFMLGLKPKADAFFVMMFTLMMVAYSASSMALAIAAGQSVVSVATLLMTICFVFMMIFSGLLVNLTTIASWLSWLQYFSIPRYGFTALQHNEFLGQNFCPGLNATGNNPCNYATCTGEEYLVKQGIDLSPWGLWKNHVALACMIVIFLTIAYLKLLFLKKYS

Structure (SMILES) | interpatient variability, CV %, AUC inf [1] [%] | interpatient variability, CV %, AUC t [1] [%] | interpatient variability, CV %, Cmax [1] [%] | tin value of cladribine ([2]; pH 1.0 solutions) [h] | tin value of cladribine ([2]; pH 2.0 solutions) [h] | active substance remained in solution ([3]; absence of cyclodextrins, after 8 hours) [%] | active substance lost ([3]; absence of cyclodextrins, after about 3 hours) | active substance maintained ([3]; 8 hours) | active substance maintained ([3]; almost 5 hours) | bioavailability after oral administration [4] [%] | bioavailability [5] [%] | degradation [6] | solubility in water | degradation (deglycosylation to Cloroadenine) (Clostridium perfringens) | degradation (deglycosylation to Cloroadenine) (Escherichia coli) | degradation (deglycosylation to Cloroadenine) (whole feces) | degradation (Bacteroides fragilis) | degradation (Enterococcus faecalis) | substrate of BCRP (ABCG2) transporter proteins [7]
Nc1nc(Cl)nc2c1ncn2[C@H]1C[C@H](O)[C@@H](CO)O1 [Mavenclad] | 29.2 | 29.8 | 43.0 | – | – | – | – | – | – | – | – | – | – | – | – | – | – | – | –
Nc1nc(Cl)nc2c1ncn2[C@H]1C[C@H](O)[C@@H](CO)O1 [cladribine, 2-chloro-2′-deoxyadenosine] | – | – | – | 0.37 | 1.6 | 15 | about 50% | approximately 70% | more than 80% | 35.3 | 21 | slowly or not at all | slightly soluble | rapidly deglycosylated | rapidly deglycosylated | rapidly deglycosylated | slowly or not at all | slowly or not at all | substrate of BCRP
